Values joined by “and” are separate entries in the source; they are usually repeats but may differ in a detail not shown here. Equal entries are not always repeated.
Experiments:
plasma protein = assay: In vitro plasma protein binding; format: in vitro ADME
Procedure: (§1) The pharmacokinetic (PK) properties of N-(4-tert-Butyl-benzyl)-3-chloro-N-[2-(4-chloro-3-ethyl-phenyl)-ethyl]-2-fluoro-5-trifluoromethyl-benz-amide were assessed in the rat and cynomolgus monkey. […] The very high protein binding, in combination with moderate membrane permeability, is the likely cause for the low volume of distribution observed in vivo.

[1] = tested on: HDL-C, LDL-C, apoA-I, apoB-100; assay: Plasma lipids and apolipoproteins after multiple doses for 14 days in clinical study; format: in vivo, human
Procedure: The CETP inhibition achieved with multiple doses of up to 420 mg N-(4-tert-Butyl-benzyl)-3-chloro-N-[2-(4-chloro-3-ethyl-phenyl)-ethyl]-2-fluoro-5-trifluoromethyl-benz-amide for 14 days in healthy subjects was associated with increase of HDL-C and apolipoprotein A-I (apoA-I) and decrease in LDL-C and apolipoprotein B-100 (apoB-100). […] The maximum mean increase from baseline ranged from 48% to 55% with the 180 and 420 mg doses, respectively, and was maintained over the entire dosing interval of 24 hours. For LDL-C, plasma levels decreased after 14 days of treatment with all N-(4-tert-Butyl-benzyl)-3-chloro-N-[2-(4-chloro-3-ethyl-phenyl)-ethyl]-2-fluoro-5-trifluoromethyl-benz-amide doses from 10 to 420 mg.

plasma CETP activity = target: T1, plasma CETP activity (Homo sapiens, UniProt P11597); assay: Plasma CETP activity and CETP mass in combined SAD/MAD clinical study; format: in vivo
T1 construct: from tissue; host or cells: plasma of study subjects
T1 sequence (P11597 18-493): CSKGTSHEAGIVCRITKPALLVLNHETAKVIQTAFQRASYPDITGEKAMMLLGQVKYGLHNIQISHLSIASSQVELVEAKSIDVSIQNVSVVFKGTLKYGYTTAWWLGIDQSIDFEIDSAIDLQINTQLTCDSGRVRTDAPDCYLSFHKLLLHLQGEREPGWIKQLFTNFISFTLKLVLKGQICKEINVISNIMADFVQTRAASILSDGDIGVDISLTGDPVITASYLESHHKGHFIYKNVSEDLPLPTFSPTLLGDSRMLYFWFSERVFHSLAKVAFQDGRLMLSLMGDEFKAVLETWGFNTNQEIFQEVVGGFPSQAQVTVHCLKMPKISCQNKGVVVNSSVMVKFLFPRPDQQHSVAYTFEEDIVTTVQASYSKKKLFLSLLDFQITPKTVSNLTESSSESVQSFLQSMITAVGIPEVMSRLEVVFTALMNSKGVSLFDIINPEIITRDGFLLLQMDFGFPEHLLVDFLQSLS
Procedure: The main difference between the different doses was the duration of the inhibition, which was sustained for 24 hours with the two highest tested multiple dose levels (180 mg and 420 mg). […] After multiple doses of N-(4-tert-Butyl-benzyl)-3-chloro-N-[2-(4-chloro-3-ethyl-phenyl)-ethyl]-2-fluoro-5-trifluoromethyl-benz-amide for 14 days, a similar trend in CETP inhibition was observed.

[2] = Clinical pharmacokinetics, SAD/MAD study and food effect; format: in vivo, human
Procedure: Two clinical studies have been completed with N-(4-tert-Butyl-benzyl)-3-chloro-N-[2-(4-chloro-3-ethyl-phenyl)-ethyl]-2-fluoro-5-trifluoromethyl-benz-amide in male healthy subject and male mildly dyslipidemic subjects.
Following oral administration of N-(4-tert-Butyl-benzyl)-3-chloro-N-[2-(4-chloro-3-ethyl-phenyl)-ethyl]-2-fluoro-5-trifluoromethyl-benz-amide at single ascending doses (SAD) and multiple ascending doses (MAD) in a first clinical study, a lag time (Tlag) of 0.5 hour was observed, and Cmax was achieved on average at 3 hours post-dose.
Food increased the oral bioavailability of N-(4-tert-Butyl-benzyl)-3-chloro-N-[2-(4-chloro-3-ethyl-phenyl)-ethyl]-2-fluoro-5-trifluoromethyl-benz-amide. A standard breakfast increased exposure in terms of AUC and Cmax by approximately 4- to 6-fold, compared with the fasted state and depending on the formulation used.

[3] = tested on: 50 pharmacologically relevant receptors; assay: Binding screen on 50 pharmacologically relevant receptors; conditions: concentration of 10 μM
[4] = target: T2, cholesteryl ester transfer protein (CETP) (Homo sapiens, UniProt P11597); assay: In vitro inhibition of CETP activity; format: biochemical
T2 sequence (P11597 18-493): T1 sequence (P11597 18-493)

CETP activity [5] = target: T3, CETP activity (Macaca fascicularis, UniProt P47896); assay: In vivo inhibition of CETP activity in cynomolgus monkeys
T3 construct: from tissue; host or cells: cynomolgus monkey, in vivo (endogenous circulating CETP)
T3 sequence (P47896 18-493): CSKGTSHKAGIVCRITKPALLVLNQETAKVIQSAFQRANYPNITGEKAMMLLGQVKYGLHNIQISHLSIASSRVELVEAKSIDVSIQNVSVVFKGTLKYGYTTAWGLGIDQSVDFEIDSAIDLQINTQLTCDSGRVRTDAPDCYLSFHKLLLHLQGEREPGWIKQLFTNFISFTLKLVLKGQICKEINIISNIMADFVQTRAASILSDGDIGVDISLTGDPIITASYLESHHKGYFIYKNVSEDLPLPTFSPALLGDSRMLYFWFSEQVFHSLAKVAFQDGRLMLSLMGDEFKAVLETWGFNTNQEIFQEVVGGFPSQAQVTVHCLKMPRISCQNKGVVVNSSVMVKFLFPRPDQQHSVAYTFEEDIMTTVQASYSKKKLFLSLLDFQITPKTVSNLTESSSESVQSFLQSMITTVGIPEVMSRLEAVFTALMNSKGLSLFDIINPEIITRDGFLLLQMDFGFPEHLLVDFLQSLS

[6] = Pharmacokinetic properties and excretion in the cynomolgus monkey; format: in vivo
Procedure: as §1
In the rat and cynomolgus monkey, the major excretion route was the bile and feces, independent of the route of administration (approximately 92% of administered dose eliminated). Less than 1% of the dose was eliminated renally.

CETP activity [7] = assay: In vivo inhibition of CETP activity in hamsters
Membrane permeability = format: in vitro ADME
Procedure: as §1

[8] = multiple doses of up to 420 mg for 14 days, healthy subjects

CCc1cc(CCN(Cc2ccc(C(C)(C)C)cc2)C(=O)c2cc(C(F)(F)F)cc(Cl)c2F)ccc1Cl [Compound 1, N-(4-tert-Butyl-benzyl)-3-chloro-N-[2-(4-chloro-3-ethyl-phenyl)-ethyl]-2-fluoro-5-trifluoromethyl-benzamide]
plasma protein binding in vitro (plasma protein): extremely high and concentration-independent
mean LDL-C decrease over the entire dosing interval ([1]; 180 mg dose and higher doses, 14 days): at least 30%
HDL-C maximum mean increase from baseline ([1]; 180 mg, 14 days): 48%
HDL-C maximum mean increase from baseline ([1]; 420 mg, 14 days): 55%
apolipoprotein A-I (apoA-I) [1, 8]: increase
apolipoprotein B-100 (apoB-100) [1, 8]: decrease
CETP mass (plasma CETP activity; after multiple doses): dose-dependent and time-dependent increase
inhibition of plasma CETP activity (plasma CETP activity; first measurement, 2 hours post-dose, Day 1, all doses, healthy and mildly dyslipidemic subjects): Complete CETP inhibition
duration of the CETP inhibition (plasma CETP activity; two highest multiple dose levels (180 mg and 420 mg)): 24 h
accumulation ratio for AUC0-24h ([2]; 420 mg once daily, Day 14 to Day 1): 1.4
accumulation with once-daily regimen ([2]; across doses except the highest dose (420 mg)): No accumulation was apparent
half-life ([2]; male, human, in vivo, oral, after multiple doses above 10 mg, read-out: mean terminal half-life): 15 to 35 h
dose up to which AUC0-24h and Cmax increased dose-proportionally ([2]; multiple doses (part 2 MAD)): ≤ 180 mg
lag time (Tlag) ([2]; oral, SAD and MAD, first clinical study): 0.5 h
dose up to which AUC0-24h and Cmax increased dose-proportionally ([2]; single doses (part 1 SAD)): ≤ 360 mg
binding to 50 pharmacologically relevant receptors [3]: no significant binding
IC50 [4]: 8 nM and 7.21 nM
inhibition of CETP activity in vivo (CETP activity [5]): inhibition of CETP activity has been demonstrated
absolute oral bioavailability [6]: relatively low
dose eliminated renally [6]: Less than 1%
gastrointestinal absorption [6]: limited
terminal half-life [6]: medium to long
total systemic clearance [6]: low
volume of distribution [6]: low
plasma protein binding ([6]; across species): very high
administered dose eliminated via bile and feces ([6]; independent of the route of administration): approximately 92%
inhibition of CETP activity in vivo (CETP activity [7]): inhibition of CETP activity has been demonstrated
membrane permeability (Membrane permeability): moderate

Reference: US20170035708A1, “USE OF N-(4-TERT-BUTYLBENZYL)-3-CHLORO-N-[2-(4-CHLORO-3-ETHYL-PHENYL)-ETHYL]-2-FLUORO-5-TRIFLUOROMETHYL-BENZAMIDE FOR THE TREATMENT OF EYE DISEASES” (Hoffmann-La Roche Inc., priority 2013, published 2017)
